From ChEMBL document CHEMBL3621110, “Discovery and Development of the Aryl O-Sulfamate Pharmacophore for Oncology and Women's Health” (J Med Chem, 2015)

Key:
Rattus norvegicus [1] = species: Rattus norvegicus; assay: animal or person; assay type: functional; settings: Liver, po, 168 h
Steryl-sulfatase [2] = molecular target: T1, Steryl-sulfatase (Homo sapiens, UniProt P08842); assay type: microsomes, Placenta, Microsome
T1 sequence (P08842 whole entry): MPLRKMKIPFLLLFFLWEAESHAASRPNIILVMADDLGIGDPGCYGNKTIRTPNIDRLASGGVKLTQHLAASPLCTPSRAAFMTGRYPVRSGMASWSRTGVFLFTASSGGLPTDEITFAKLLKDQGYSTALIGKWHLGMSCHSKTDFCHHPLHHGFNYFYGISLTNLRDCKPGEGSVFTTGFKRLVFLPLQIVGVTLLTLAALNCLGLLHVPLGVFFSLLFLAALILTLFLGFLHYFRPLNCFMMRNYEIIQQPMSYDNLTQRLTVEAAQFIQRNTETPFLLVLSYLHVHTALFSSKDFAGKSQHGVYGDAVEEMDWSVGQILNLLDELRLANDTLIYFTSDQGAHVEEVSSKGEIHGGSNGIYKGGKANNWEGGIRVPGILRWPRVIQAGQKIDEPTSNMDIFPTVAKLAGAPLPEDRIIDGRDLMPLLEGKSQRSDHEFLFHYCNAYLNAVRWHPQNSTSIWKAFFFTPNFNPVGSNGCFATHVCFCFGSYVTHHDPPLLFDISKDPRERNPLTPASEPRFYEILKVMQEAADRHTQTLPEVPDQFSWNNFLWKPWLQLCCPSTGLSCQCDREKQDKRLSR

Rattus norvegicus [3] = species: Rattus norvegicus; assay: animal or person; assay type: functional; settings: Liver, po, 120 h
LNCaP = assay: cells; assay type: functional, cell-based; settings: Homo sapiens
MCF7 [4] = assay: cells; assay type: functional; settings: Homo sapiens
cells [5] = assay type: functional, cell-based; settings: Homo sapiens, A2780 ADR
A2780cisR = assay: cells; assay type: functional, cell-based; settings: Homo sapiens
cells [6] = assay type: functional, cell-based; settings: Homo sapiens, PC-3
MDA-MB-231 [7] = assay: cells; assay type: functional; settings: Homo sapiens
Steryl-sulfatase [8] = molecular target: T1, Steryl-sulfatase; set-up: species or system Placenta, Microsome
Cytochrome P450 1A2 = molecular target: T2, Cytochrome P450 1A2 (Homo sapiens, UniProt P05177)
T2 sequence (P05177 whole entry): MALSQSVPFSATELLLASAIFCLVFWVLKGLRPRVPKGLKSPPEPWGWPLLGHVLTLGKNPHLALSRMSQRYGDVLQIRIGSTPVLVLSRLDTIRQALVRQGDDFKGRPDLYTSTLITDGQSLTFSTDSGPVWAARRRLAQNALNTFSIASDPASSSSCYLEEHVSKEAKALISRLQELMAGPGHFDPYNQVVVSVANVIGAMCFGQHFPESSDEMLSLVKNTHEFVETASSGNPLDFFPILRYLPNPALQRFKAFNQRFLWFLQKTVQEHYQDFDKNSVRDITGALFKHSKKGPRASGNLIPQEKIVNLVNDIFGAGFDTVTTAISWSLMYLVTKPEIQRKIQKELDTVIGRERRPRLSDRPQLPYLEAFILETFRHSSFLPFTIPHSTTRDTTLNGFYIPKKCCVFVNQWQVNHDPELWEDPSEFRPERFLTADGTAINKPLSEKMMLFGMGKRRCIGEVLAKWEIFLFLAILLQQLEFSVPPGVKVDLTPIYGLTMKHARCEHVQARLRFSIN

Steryl-sulfatase [9] = molecular target: T1, Steryl-sulfatase; assay type: cell-based, MCF7
DU-145 = assay: cells; assay type: functional; settings: Homo sapiens
Rattus norvegicus [10] = species: Rattus norvegicus; assay: animal or person; assay type: functional; settings: Wistar, po, 3 h
Steryl-sulfatase [11] = molecular target: T1, Steryl-sulfatase; assay type: cell-based, JEG-3
Rattus norvegicus [12] = species: Rattus norvegicus; assay: animal or person; assay type: functional; settings: Wistar, po, 3 h; remark: listed apart in the source
Estrogen receptor = molecular target: T3, Estrogen receptor (Homo sapiens, UniProt P03372)
T3 sequence (P03372 whole entry): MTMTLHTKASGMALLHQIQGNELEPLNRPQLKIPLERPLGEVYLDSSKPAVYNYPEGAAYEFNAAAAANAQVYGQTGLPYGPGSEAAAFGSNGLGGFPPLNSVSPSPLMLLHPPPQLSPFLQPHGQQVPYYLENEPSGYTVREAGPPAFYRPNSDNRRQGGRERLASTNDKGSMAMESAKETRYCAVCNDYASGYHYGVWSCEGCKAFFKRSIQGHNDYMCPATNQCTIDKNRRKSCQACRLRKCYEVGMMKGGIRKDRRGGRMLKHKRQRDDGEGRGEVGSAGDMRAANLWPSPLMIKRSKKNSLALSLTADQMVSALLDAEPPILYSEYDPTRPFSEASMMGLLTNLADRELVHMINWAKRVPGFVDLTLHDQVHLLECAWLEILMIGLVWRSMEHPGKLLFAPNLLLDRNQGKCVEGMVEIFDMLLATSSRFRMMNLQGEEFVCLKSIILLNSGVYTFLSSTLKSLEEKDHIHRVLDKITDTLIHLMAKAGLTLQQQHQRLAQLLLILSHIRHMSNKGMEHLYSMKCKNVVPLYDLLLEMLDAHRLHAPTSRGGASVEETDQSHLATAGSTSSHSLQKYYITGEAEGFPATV

MCF7 [13] = assay: cells; assay type: functional; settings: Homo sapiens; remark: listed apart in the source
MCF7 [14] = assay: cells; assay type: functional, cell-based; settings: Homo sapiens
MCF7 [15] = assay: animal or person; assay type: functional, Homo sapiens; settings: Mus musculus, MCF7, po
MDA-MB-231 [16] = assay: cells; assay type: functional, cell-based; settings: Homo sapiens
Homo sapiens [17] = species: Homo sapiens; assay type: functional
Homo sapiens [18] = species: Homo sapiens; assay type: functional; remark: listed apart in the source

Cc1cc(=O)oc2cc(OS(N)(=O)=O)ccc12
inhibition in vivo at 10 mg/kg/day (Rattus norvegicus [1]): 85%

C[C@]12CC[C@@H]3c4ccc(OS(N)(=O)=O)cc4CC[C@H]3[C@@H]1CC(=O)N(Cc1cccnc1)C2=O
IC50 (Steryl-sulfatase [2]): 1 nM | inhibition in vivo at 10 mg/kg/day (Rattus norvegicus [3]): 99%

CCc1cc2c(cc1OS(N)(=O)=O)CC[C@@H]1[C@@H]2CC[C@]2(C)C(=O)CC[C@@H]12
IC50 (LNCaP): 100 nM | GI50 (MCF7 [4]): 340 nM | IC50 (cells [5]): 100 nM | IC50 (A2780cisR): 100 nM | IC50 (cells [6]): 100 nM

C[C@]12CC[C@@H]3c4ccc(OS(N)(=O)=O)c(Br)c4CC[C@H]3[C@@H]1CCC2=O
GI50 (MCF7 [4]): 42 nM

COc1cccc(CN2Cc3cc(OC)c(OS(N)(=O)=O)cc3CC2C)c1 (centres undefined)
GI50 (MDA-MB-231 [7]): 234 nM

NS(=O)(=O)Oc1ccc2c3c(c(=O)oc2c1)CCC3
IC50 (Steryl-sulfatase [8]): 200 nM

NS(=O)(=O)Oc1ccc2c3c(c(=O)oc2c1)CCCC3
IC50 (Steryl-sulfatase [8]): 70 nM

NS(=O)(=O)Oc1ccc2c3c(c(=O)oc2c1)CCCCCC3
IC50 (Steryl-sulfatase [8]): 30 nM

NS(=O)(=O)Oc1ccc2c3c(c(=O)oc2c1)CCCCCCC3
IC50 (Steryl-sulfatase [8]): 2.4 nM

NS(=O)(=O)Oc1ccc2c3c(c(=O)oc2c1)CCCCCCCC3
IC50 (Steryl-sulfatase [8]): 1 nM

NS(=O)(=O)Oc1ccc2c3c(c(=O)oc2c1)CCCCCCCCCC3
IC50 (Steryl-sulfatase [8]): 60 nM

NS(=O)(=O)Oc1ccc2c3c(c(=O)oc2c1)CCCCCCCCCCC3
IC50 (Steryl-sulfatase [8]): 75 nM

NS(=O)(=O)Oc1ccc2c3c(c(=O)oc2c1)CCCCCCCCCCCCC3
IC50 (Steryl-sulfatase [8]): 370 nM

O=c1oc2cc(O)ccc2c2c1CCCCC2
Ki (Cytochrome P450 1A2): 770 nM

C[C@]12CC[C@@H]3c4ccc(OS(N)(=O)=O)cc4CC[C@H]3[C@@H]1CC(=O)NC2=O
IC50 (Steryl-sulfatase [2]): 20 nM

CN1C(=O)C[C@H]2[C@@H]3CCc4cc(OS(N)(=O)=O)ccc4[C@H]3CC[C@]2(C)C1=O
IC50 (Steryl-sulfatase [2]): 12 nM

CCN1C(=O)C[C@H]2[C@@H]3CCc4cc(OS(N)(=O)=O)ccc4[C@H]3CC[C@]2(C)C1=O
IC50 (Steryl-sulfatase [2]): 52 nM

CCCCN1C(=O)C[C@H]2[C@@H]3CCc4cc(OS(N)(=O)=O)ccc4[C@H]3CC[C@]2(C)C1=O
IC50 (Steryl-sulfatase [2]): 382 nM

CCCCCCN1C(=O)C[C@H]2[C@@H]3CCc4cc(OS(N)(=O)=O)ccc4[C@H]3CC[C@]2(C)C1=O
IC50 (Steryl-sulfatase [2]): 288 nM

CC(C)(C)c1ccc(CN2C(=O)C[C@H]3[C@@H]4CCc5cc(OS(N)(=O)=O)ccc5[C@H]4CC[C@]3(C)C2=O)cc1
IC50 (Steryl-sulfatase [2]): 23 nM

C[C@]12CC[C@@H]3c4ccc(OS(N)(=O)=O)cc4CC[C@H]3[C@@H]1CC(=O)N(Cc1ccccc1)C2=O
IC50 (Steryl-sulfatase [2]): 3 nM

C=CCN1C(=O)C[C@H]2[C@@H]3CCc4cc(OS(N)(=O)=O)ccc4[C@H]3CC[C@]2(C)C1=O
IC50 (Steryl-sulfatase [2]): 75 nM

CC/C(=C(/CC)c1ccc(OS(N)(=O)=O)cc1)c1ccc(OS(N)(=O)=O)cc1
IC50 (Steryl-sulfatase [9]): 10 nM

CCc1cc2c(cc1OS(N)(=O)=O)CCN(Cc1cc(OC)c(OC)c(OC)c1)C2
GI50 (DU-145): 41 nM | GI50 (MDA-MB-231 [7]): 52 nM

CCC1Cc2cc(OS(N)(=O)=O)c(OC)cc2CN1Cc1cccc(OC)c1 (centres undefined)
GI50 (DU-145): 286 nM | GI50 (MDA-MB-231 [7]): 281 nM

COc1ccc(F)c(CN2Cc3cc(OC)c(OS(N)(=O)=O)cc3CC2C)c1 (centres undefined)
GI50 (DU-145): 299 nM | GI50 (MDA-MB-231 [7]): 269 nM

COc1ccc(OC)c(CN2Cc3cc(OC)c(OS(N)(=O)=O)cc3CC2C)c1 (centres undefined)
GI50 (DU-145): 189 nM | GI50 (MDA-MB-231 [7]): 160 nM

COc1cc2c(cc1OS(N)(=O)=O)CCN(Cc1cc(OC)c(OC)c(OC)c1)C2C (centres undefined)
GI50 (DU-145): 360 nM | GI50 (MDA-MB-231 [7]): 300 nM

COc1cc2c(cc1OS(N)(=O)=O)CCN(Cc1cc(Cl)c(OC)c(OC)c1)C2
GI50 (DU-145): 40 nM | GI50 (MDA-MB-231 [7]): 40 nM

COc1cc2c(cc1OS(N)(=O)=O)CCN(Cc1cc(Br)c(OC)c(OC)c1)C2
GI50 (DU-145): 30 nM | GI50 (MDA-MB-231 [7]): 30 nM

CCc1cc2c(cc1OS(N)(=O)=O)CCN(Cc1cc(Br)c(OC)c(OC)c1)C2
GI50 (DU-145): 20 nM | GI50 (MDA-MB-231 [7]): 30 nM

CCOc1c(OC)cc(CN2CCc3cc(OS(N)(=O)=O)c(OC)cc3C2)cc1OC
GI50 (DU-145): 100 nM | GI50 (MDA-MB-231 [7]): 70 nM

N#Cc1ccc(N(CCSc2ccc(OS(N)(=O)=O)c(Cl)c2)n2cnnc2)cc1
inhibition in vivo at 10 mg/kg (Rattus norvegicus [10]): 92% | IC50 (Steryl-sulfatase [11]): 1200 nM | inhibition in vivo at 10 mg/kg (Rattus norvegicus [12]): 98%

N#Cc1ccc(N(Cc2ccc3cc(OS(N)(=O)=O)ccc3c2)n2cnnc2)cc1
IC50 (Steryl-sulfatase [11]): 367 nM

N#Cc1ccc(N(Cc2ccc3c(Cl)c(OS(N)(=O)=O)ccc3c2)n2cnnc2)cc1
inhibition in vivo at 10 mg/kg (Rattus norvegicus [10]): 93% | IC50 (Steryl-sulfatase [11]): 26 nM | inhibition in vivo at 10 mg/kg (Rattus norvegicus [12]): 93%

N#Cc1ccc(N(Cc2ccc3c(Br)c(OS(N)(=O)=O)ccc3c2)n2cnnc2)cc1
IC50 (Steryl-sulfatase [11]): 205 nM

Cn1nnc2ccc(C(c3ccc(OS(N)(=O)=O)cc3)n3cncn3)cc21 (centres undefined)
IC50 (Steryl-sulfatase [11]): > 10000 nM

CCN(Cc1ccc(C(=O)N2CCc3ccc(O)cc3C2)cc1)Cc1ccccn1
IC50 (Estrogen receptor): 24600 nM

COc1cc2c(cc1OS(N)(=O)=O)CC[C@@H]1[C@@H]2CC[C@]2(C)C(=O)CC[C@@H]12
inhibition at 1 µM (MCF7 [13]): 52% | IC50 (LNCaP): 100 nM | GI50 (MCF7 [4]): 300 nM | IC50 (Steryl-sulfatase [8]): 30 nM | IC50 (cells [5]): 100 nM | IC50 (A2780cisR): 100 nM | IC50 (cells [6]): 100 nM

COc1cc2c(cc1OS(N)(=O)=O)CC[C@@H]1[C@@H]2CC[C@]2(C)[C@@H](CC#N)CC[C@@H]12
IC50 (MCF7 [14]): 70 nM | inhibition in vivo at 20 mg/kg (MCF7 [15]): 22% | IC50 (MDA-MB-231 [16]): 80 nM

N#Cc1ccc(N(Cc2ccc(OS(N)(=O)=O)cc2)n2cnnc2)cc1
inhibition in vivo at 10 mg/kg (Rattus norvegicus [12]): 39%

C[C@]12CC[C@@H]3c4ccc(OS(N)(=O)=O)cc4CC[C@H]3[C@@H]1CC[C@@H]2O [E2MATE]
inhibition (INH) (Homo sapiens [17]): 91% | inhibition (INH) (Homo sapiens [18]): 96%
